≈ marks a conversion by molar mass, not a printed value.
Legend:
Assay type in all cases: functional
[1] = tested on: Staphylococcus aureus; test: Antibacterial activity against Staphylococcus aureus assessed as inhibition of bacterial growth incubated for 18 hrs by two fold broth microdilution assay
[2] = tested on: Staphylococcus aureus; test: Antibacterial activity against methicilin-resistant Staphylococcus aureus N315 assessed as inhibition of bacterial growth incubated for 18 hrs by two fold broth microdilution assay
[3] = tested on: Pseudomonas aeruginosa; test: Antibacterial activity against Pseudomonas aeruginosa assessed as inhibition of bacterial growth incubated for 18 hrs by two fold broth microdilution assay
[4] = tested on: Klebsiella pneumoniae; test: Antibacterial activity against Klebsiella pneumoniae assessed as inhibition of bacterial growth incubated for 18 hrs by two fold broth microdilution assay
[5] = tested on: Escherichia coli; test: Antibacterial activity against Escherichia coli ATCC 25922 assessed as inhibition of bacterial growth incubated for 18 hrs by two fold broth microdilution assay
[6] = tested on: Acinetobacter baumannii; test: Antibacterial activity against Acinetobacter baumannii assessed as inhibition of bacterial growth incubated for 18 hrs by two fold broth microdilution assay
[7] = tested on: Staphylococcus aureus; test: Antibacterial activity against Staphylococcus aureus ATCC 29213 assessed as inhibition of bacterial growth incubated for 18 hrs by two fold broth microdilution assay
[8] = tested on: Pseudomonas aeruginosa; test: Antibacterial activity against Pseudomonas aeruginosa ATCC 27853 assessed as inhibition of bacterial growth incubated for 18 hrs by two fold broth microdilution assay
[9] = tested on: Staphylococcus aureus; test: Antibacterial activity against Staphylococcus aureus ATCC 25923 assessed as inhibition of bacterial growth incubated for 18 hrs by two fold broth microdilution assay
[10] = tested on: Escherichia coli; test: Antibacterial activity against Escherichia coli assessed as inhibition of bacterial growth incubated for 18 hrs by two fold broth microdilution assay
[11] = tested on: Enterococcus faecalis; test: Antibacterial activity against Enterococcus faecalis assessed as inhibition of bacterial growth incubated for 18 hrs by two fold broth microdilution assay

Row | SMILES | MIC [1] [µg/mL] | MIC [2] [µg/mL] | MIC [3] [µg/mL] | MIC [4] [µg/mL] | MIC [5] [µg/mL] | MIC [6] [µg/mL] | MIC [7] [µg/mL] | MIC [8] [µg/mL] | MIC [9] [µg/mL] | MIC [10] [µg/mL] | MIC [11] [µg/mL]
1 | CC(=O)Nc1ccc(S(=O)(=O)/C(C#N)=C/c2cn(CC(=O)N3CCOCC3)c3ccccc23)cc1 | 256 (≈ 520 µM) | 16 (≈ 32.5 µM) | 64 (≈ 130 µM) | 128 (≈ 260 µM) | 128 (≈ 260 µM) | 128 (≈ 260 µM) | 2 (≈ 4.06 µM) | 256 (≈ 520 µM) | 64 (≈ 130 µM) | 256 (≈ 520 µM) | 64 (≈ 130 µM)
2 | N#C/C(=C\c1cn(CC2CCCCC2)c2ccccc12)S(=O)(=O)c1ccc(N)cc1 | 16 (≈ 38.1 µM) | 1 (≈ 2.38 µM) | 4 (≈ 9.53 µM) | 4 (≈ 9.53 µM) | 2 (≈ 4.77 µM) | 32 (≈ 76.3 µM) | 2 (≈ 4.77 µM) | 2 (≈ 4.77 µM) | 2 (≈ 4.77 µM) | 4 (≈ 9.53 µM) | 8 (≈ 19.1 µM)
3 | CC(=O)Nc1ccc(S(=O)(=O)/C(C#N)=C/c2cn(CC3CCCC3)c3ccccc23)cc1 | 8 (≈ 17.9 µM) | 128 (≈ 286 µM) | 64 (≈ 143 µM) | 4 (≈ 8.94 µM) | 64 (≈ 143 µM) | 32 (≈ 71.5 µM) | 16 (≈ 35.7 µM) | 16 (≈ 35.7 µM) | 128 (≈ 286 µM) | 256 (≈ 572 µM) | 32 (≈ 71.5 µM)
4 | CC(=O)Nc1ccc(S(=O)(=O)/C(C#N)=C/c2c[nH]c3cc(Br)ccc23)cc1 | 32 (≈ 72 µM) | 64 (≈ 144 µM) | 64 (≈ 144 µM) | 4 (≈ 9 µM) | 64 (≈ 144 µM) | 16 (≈ 36 µM) | 32 (≈ 72 µM) | 16 (≈ 36 µM) | 128 (≈ 288 µM) | 128 (≈ 288 µM) | 32 (≈ 72 µM)
5 | Cn1cc(/C=C(\C#N)S(=O)(=O)c2ccc(N)cc2)c2ccccc21 | 256 (≈ 759 µM) | 128 (≈ 379 µM) | 64 (≈ 190 µM) | 4 (≈ 11.9 µM) | 2 (≈ 5.93 µM) | 2 (≈ 5.93 µM) | 32 (≈ 94.8 µM) | 64 (≈ 190 µM) | 128 (≈ 379 µM) | 64 (≈ 190 µM) | 256 (≈ 759 µM)
6 | CC(=O)Nc1ccc(S(=O)(=O)/C(C#N)=C/c2cn(Cc3ccccc3F)c3ccccc23)cc1 | 128 (≈ 270 µM) | 256 (≈ 541 µM) | 64 (≈ 135 µM) | 256 (≈ 541 µM) | 64 (≈ 135 µM) | 16 (≈ 33.8 µM) | 4 (≈ 8.45 µM) | 16 (≈ 33.8 µM) | 4 (≈ 8.45 µM) | 128 (≈ 270 µM) | 8 (≈ 16.9 µM)
7 | CC(=O)Nc1ccc(S(=O)(=O)/C(C#N)=C/c2cn(CC=C(C)C)c3ccccc23)cc1 | 4 (≈ 9.23 µM) | 64 (≈ 148 µM) | 64 (≈ 148 µM) | 16 (≈ 36.9 µM) | 8 (≈ 18.5 µM) | 8 (≈ 18.5 µM) | 8 (≈ 18.5 µM) | 8 (≈ 18.5 µM) | 8 (≈ 18.5 µM) | 8 (≈ 18.5 µM) | 4 (≈ 9.23 µM)
8 | CCCCCCn1cc(/C=C(\C#N)S(=O)(=O)c2ccc(N)cc2)c2ccccc21 | 256 (≈ 628 µM) | 32 (≈ 78.5 µM) | 8 (≈ 19.6 µM) | 128 (≈ 314 µM) | 64 (≈ 157 µM) | 8 (≈ 19.6 µM) | 4 (≈ 9.82 µM) | 8 (≈ 19.6 µM) | 2 (≈ 4.91 µM) | 8 (≈ 19.6 µM) | 4 (≈ 9.82 µM)
9 | N#C/C(=C\c1c[nH]c2ccc([N+](=O)[O-])cc12)S(=O)(=O)c1ccc(N)cc1 | 64 (≈ 174 µM) | 128 (≈ 347 µM) | 64 (≈ 174 µM) | 4 (≈ 10.9 µM) | 8 (≈ 21.7 µM) | 64 (≈ 174 µM) | 64 (≈ 174 µM) | 16 (≈ 43.4 µM) | 128 (≈ 347 µM) | 128 (≈ 347 µM) | 128 (≈ 347 µM)
10 | N#C/C(=C\c1cn(Cc2ccccc2F)c2ccccc12)S(=O)(=O)c1ccc(N)cc1 | 256 (≈ 593 µM) | 64 (≈ 148 µM) | 64 (≈ 148 µM) | 128 (≈ 297 µM) | 8 (≈ 18.5 µM) | 256 (≈ 593 µM) | 4 (≈ 9.27 µM) | 128 (≈ 297 µM) | 8 (≈ 18.5 µM) | 256 (≈ 593 µM) | 64 (≈ 148 µM)
11 | CCCCCn1cc(/C=C(\C#N)S(=O)(=O)c2ccc(N)cc2)c2ccccc21 | 256 (≈ 651 µM) | 256 (≈ 651 µM) | 64 (≈ 163 µM) | 8 (≈ 20.3 µM) | 16 (≈ 40.7 µM) | 32 (≈ 81.3 µM) | 16 (≈ 40.7 µM) | 64 (≈ 163 µM) | 128 (≈ 325 µM) | 8 (≈ 20.3 µM) | 128 (≈ 325 µM)
12 | CC(=O)Nc1ccc(S(=O)(=O)/C(C#N)=C/c2cn(CCN3CCOCC3)c3ccccc23)cc1 | 128 (≈ 267 µM) | 32 (≈ 66.9 µM) | 4 (≈ 8.36 µM) | 256 (≈ 535 µM) | 0.5 (≈ 1.04 µM) | 32 (≈ 66.9 µM) | 32 (≈ 66.9 µM) | 8 (≈ 16.7 µM) | 32 (≈ 66.9 µM) | 64 (≈ 134 µM) | 256 (≈ 535 µM)
13 | CC(=O)Nc1ccc(S(=O)(=O)/C(C#N)=C/c2c[nH]c3cccc(Cl)c23)cc1 | 32 (≈ 80 µM) | 64 (≈ 160 µM) | 64 (≈ 160 µM) | 4 (≈ 10 µM) | 16 (≈ 40 µM) | 16 (≈ 40 µM) | 32 (≈ 80 µM) | 32 (≈ 80 µM) | 128 (≈ 320 µM) | 128 (≈ 320 µM) | 32 (≈ 80 µM)
